{"source": "patent US20240207221A1", "about": "“TREATMENT OF HYPERAMMONEMIA” (BIOCODEX, priority 2021, published 2024)", "format_in_all_cases": "in vivo", "key": {"ammonia": {"system": "ammonia", "assay": "Specific effect of stiripentol on ammonemia (without MSO), ABCAM ammonia assay kit", "settings": "stiripentol 300 mg/kg intraperitoneally without methionine sulfoximine, mice", "experimental": "Blood is collected under isoflurane anesthesia by cardiac puncture (0.5 to 1.0 mL per mouse) to determine ammonia levels. In the case of brain and blood sampling, the mouse is rapidly sacrificed by decapitation: the brain is removed and frozen in liquid nitrogen. The liver can then be removed and rapidly frozen in liquid nitrogen. Samples are stored at −80° C.\nStiripentol (0.1 mL/10 g) is administered intraperitoneally at different times with respect to MSO. […]\nAmmonia is determined colorimetrically using a microplate reader (Dynex, model MRX), and an ABCAM kit (ref AB83360, ammonia assay kit) containing several reagents. This kit enables quantitative enzymatic determination of ammonium present in the samples. During the assay, ammonium is converted to a product that reacts with the OxiRed probe for quantification at 570 nm using a microplate reader. […] The kit, stored at −20° C., includes the following components: • Ammonia assay buffer (25 mL): ready to use, bring to room temperature before use; • OxiRed probe (200 μL): ready to use, warm to 37° ° C. to thaw DMSO; • Developer (1 vial): reconstitute with 220 μL of Ammonia assay buffer; • enzyme Mix (1 vial): reconstitute with 220 μL of Ammonia assay buffer; • Converting Enzyme (1 vial): reconstitute with 220 μl of Ammonia assay buffer, • 10 mM NH4Cl standard (100 μL): ready to use, keep on ice during use. […]"}, "[1]": {"system": "methionine sulfoximine (MSO)-induced convulsions", "experimental": "(§1) Appl. Neurobiol. 11: 129-139, as follows.\n(§2) Male CBA mice (Janvier) weighing between 23 and 27 grams are used after acclimatization for at least 4 days in the animal house (t°=22±2° C.; housing conditions are as follows: SAFE “A04” food; drinking water: tap water; nycthemeral cycle: 12 h/12 h (light: 7 h/19 h-dark: 19 h/7 h)).\nOn reception, mice are grouped in batches of 8 to 10 in 1500 U cages (floor area 1500 cm2) with bedding and sizzle dry (SDS) enrichment, in line with the ethical recommendations of European Parliament Directive 2010/63/EU (Sep. 22, 2010).\n(§3) On test day, mice are weighed, marked and placed in individual cages. At t ═O minutes, MSO (0.1 mL/10 g) is administered intraperitoneally, and the mice are carefully observed for 8 hours.\nThe parameters evaluated are the general condition of the animals, according to the Irwin grid (Irwin 1968), the number of convulsions, their onset times and mortality. Animals are euthanized as soon as limit points are reached, or at the end of the 8-hour observation period, according to the ANI07 procedure approved by the Ethics Committee.\n(§4) Stiripentol (0.1 mL/10 g) is administered intraperitoneally at different times with respect to MSO.\nStiripentol (batch 176) was suspended in 5% (v/v) Tween 80 and 0.9% NaCl.\nResults are expressed as the mean value±MSE. The statistical tests used are: • Fisher's exact test for percentages of convulsions and mortality, to determine a significant difference between groups at the 5% threshold, • A one-factor analysis of variance for the assays, to determine whether the pharmacological effect observed is significant at the 5% level (SigmaPlot 3.1 software).\nAppl. Neurobiol. 11: 129-139."}, "[2]": {"system": "methionine sulfoximine (MSO)-induced hyperammonemia", "settings": "for ammonemia: mean ± MSE", "experimental": "as §1, §2, §3, §4\nResults are expressed as the mean value±MSE."}, "[3]": {"settings": "300 mg/kg stiripentol intraperitoneally 30 minutes prior to 50 mg/kg MSO"}, "[4]": {"settings": "300 mg/kg stiripentol intraperitoneally just prior to 50 mg/kg MSO"}, "[5]": {"settings": "stiripentol 300 mg/kg intraperitoneally, mice (conclusion)"}}, "note": "Like-named read-outs stand apart in the source and are kept apart here."}
{"smiles": "CC(C)(C)C(O)/C=C/c1ccc2c(c1)OCO2", "note": "(stereo not drawn) [stiripentol]", "values": [{"measurement": "effect on ammonemia compared with the control group", "setting": "ammonia", "result": "did not alter ammonemia"}, {"measurement": "ammonemia", "setting": "ammonia; plasma, mean ± MSE", "result": "176 ± 14", "unit": "µM"}, {"measurement": "convulsion rate", "setting": "[1]; [3]", "result": 45, "unit": "%"}, {"measurement": "mortality rate", "setting": "[1]; [3]", "result": 25, "unit": "%"}, {"measurement": "convulsion rate", "setting": "[1]; [4]", "result": 50, "unit": "%"}, {"measurement": "mortality rate", "setting": "[1]; [4]", "result": 25, "unit": "%"}, {"measurement": "effect on methionine sulfoximine-induced convulsions and mortality", "setting": "[1]; [5]", "result": "significantly reduces"}, {"measurement": "ammonemia", "setting": "[2]; 300 mg/kg stiripentol 30 minutes prior to 50 mg/kg MSO (FIG. 1)", "result": "448 ± 65", "unit": "µM"}, {"measurement": "reduction of hyperammonemia", "setting": "[2]; 300 mg/kg stiripentol 30 minutes prior to 50 mg/kg MSO, compared with the MSO-only group", "result": 41, "unit": "%"}, {"measurement": "reduction of hyperammonemia", "setting": "[2]; 300 mg/kg stiripentol just prior to 50 mg/kg MSO, versus MSO only", "result": 32, "unit": "%"}, {"measurement": "ammonemia", "setting": "[2]; 300 mg/kg stiripentol just prior to 50 mg/kg MSO", "result": "417 ± 51", "unit": "µM"}, {"measurement": "effect on MSO-induced hyperammonemia", "setting": "[2]; [5]", "result": "significantly reduces"}]}
